The text below walks through data of article PMC10603899, “Reproducibility and Robustness of a Liver Microphysiological System PhysioMimix LC12 under Varying Culture Conditions and Cell Type Combinations” (Bioengineering, 2023).

Where a name gives a salt, the structure may show the parent alone.

For one data set, the system named is PHH (TF-HU8373). The experiment in a line: Midazolam metabolism (1′-OH MDZ formation) in PhysioMimix LC-12, PHH monoculture. The following applies: PhysioMimix LC12, HU8373 PHH, different cell combinations, 5 µM MDZ, 24 h.
Data set [1] has as its system PHHs (donor HU8373) + Kupffer cells. The experiment in a line: Immune-mediated toxicity, trovafloxacin ± LPS in PhysioMimix LC12, PHH + Kupffer cells. In kind it is cell-based. The following applies: 48 h. As to the method:
(§1) For evaluation of MDZ metabolism, cells were exposed on days 4–16 of culture to 5 µM MDZ (dissolved in methanol for the final concentration of 0.16% v/v). After drug addition, media were collected every 2, 6, and 24 h. After 24 h, the drug treatment media were replaced with fresh maintenance media. For the experiment with pesticide mixtures, we selected chemicals from the Agency for Toxic Substances and Disease Registry Substance Priority List, which contains compounds that are commonly detected at Superfund sites and are known to be hazardous to human health. A molar-equivalent mixture was created by combining all 20 pesticides and diluting them to a final concentration of 1 or 5 μM each in dimethyl sulfoxide (DMSO, final concentration 0.5% v/v). Media was collected 48 h after treatment for the analyses detailed below. For evaluation of immune-mediated toxicity with Trovafloxacin and LPS treatment, PHHs + THP-1 monocytes or PHHs + KCs were exposed on day 6 of culture to 25 or 100 µM of Trovafloxacin, with or without LPS. After 48 h, the drug treatment media were collected for biochemical assays detailed below.
(§2) Cell culture media was collected every time media was exchanged (Figure 1) and stored frozen at −80 °C until analyses for various biomarkers, including albumin, urea, lactate dehydrogenase (LDH), and human interleukin-6 (IL-6). The ELISA assays for albumin (E88-129, Bethyl Laboratories, Montgomery, TX, USA), urea (EIABUN, ThermoFisher), LDH (ab102526, Abcam, Cambridge, UK), and IL-6 (D6050, R&D Systems) were conducted using manufacturer’s instructions. For CYP3A4 activity, the P450 Glo 3A4 with Luciferin-IPA assay (V9001, Promega, Madison, WI, USA) was used; this is a live cell assay, and it was conducted according to the manufacturer’s instructions as follows. The Luciferin-IPA substrate was diluted 1:1000 in maintenance media and added to chips or wells 1 h prior to reading luminescence using a plate reader (SpectraMax iD3, Molecular Devices, San Jose, CA, USA). After the assay, the media was replaced.
(§3) The last series of experiments was conducted to examine whether a co-culture of PHHs and NPCs in the PhysioMimix LC12 could model immune-mediated effects. […] We examined two conditions of use: HU8373 PHH with either THP-1 cells or Kupffer cells (Figure 8). Treatments (25 or 100 μM trovafloxacin) were added on […] with or without LPS (1 μg/mL) (Figure 1H) to replicate a well-established model of immune-mediated hepatotoxicity. We examined LDH leakage as a marker of cytotoxicity, CYP3A4 activity, and IL-6 secretion into the media as a marker of pro-inflammatory response. […] Few effects on CYP3A4 were observed, albeit inter-experimental variability was high (Figure 8B).
Figure 8 Immune-mediated toxicity in the PhysioMimix LC12. […]

The subject of data set [2] is PHHs (donor HU8373) + THP-1 cells. The data set can be described thus: Immune-mediated toxicity, trovafloxacin ± LPS in PhysioMimix LC12, PHH + THP-1. In kind it is cell-based. The following applies: 48 h. As to the method: as §1, §2, §3
Figure 8 Immune-mediated toxicity in the PhysioMimix LC12. Changes in LDH, CYP3A4, and IL-6 after 48 h trovafloxacin exposure with and without LPS in the PhysioMimix LC12 seeded with PHHs (donor HU8373) and non-parenchymal cells (THP-1 cells or Kupffer cells). (A) LDH leakage, (B) CYP3A4 activity, and (C) IL-6 release. Endpoints were normalized to the mean of the pretreatment samples (day 6 of the experiment). Data are plotted as box (interquartile range) and whiskers (min-max) with all individual values shown (n = 2–12). […] Brackets indicate statistical significance between groups at p < 0.05 by two-way ANOVA with Tukey’s multiple comparisons test.

The mark [3] stands for this setting: 25 and 100 μM trovafloxacin + LPS (1 μg/mL).
The mark [4] stands for this setting: 25 or 100 μM trovafloxacin with or without LPS (1 μg/mL).

Take `Cc1ncc2n1-c1ccc(Cl)cc1C(c1ccccc1F)=NC2` [midazolam, Midazolam]: the “Midazolam metabolism over time in culture” value with PHH (TF-HU8373) is given as “remained consistent over time”.

`N[C@@H]1[C@H]2CN(c3nc4c(cc3F)c(=O)c(C(=O)O)cn4-c3ccc(F)cc3F)C[C@@H]12` [trovafloxacin, Trovafloxacin mesylate]: the “IL-6 secretion into the media” value in data set [1] (100 μM trovafloxacin) and in data set [2] (100 μM trovafloxacin) was “Increases” in each case. The “Potentiating effect of LPS on trovafloxacin (IL-6 release)” value in data set [1] (setting [3]) was “significant potentiating effect”; in data set [2] (setting [3]) it was “not THP-1 cells”. Further, the “Effect on CYP3A4 activity” value in data set [1] (setting [4]) and in data set [2] (setting [4]) was “Few effects” each time. The “LDH leakage as compared to pre-treatment levels” value in data set [2] (setting [4]) was “Significant increases”.

Turning to Lipopolysaccharide [LPS], the “IL-6 secretion into the media” value in data set [1] (LPS alone (1 μg/mL)) and in data set [2] (LPS alone (1 μg/mL)) was “Increases” in each case.
